Experimental findings from ChEMBL document CHEMBL4020740, “Antitubulin effects of aminobenzothiophene-substituted triethylated chromones” (Bioorg Med Chem Lett, 2017) are described below.

Series [1] deals with MCF7. The series can be described thus: Antiproliferative activity against human MCF7 cells by sulforhodamine B assay. For orientation: In SRB staining, fixed cells bind dye roughly in proportion to their protein.
Series [2] has as its system MDA-MB-231. As to the kind of experiment: Antiproliferative activity against human MDA-MB-231 cells by sulforhodamine B assay.
The nature of series [3]: Antiproliferative activity against human KBVIN cells by sulforhodamine B assay. Format: functional, cell-based.
In series [4] the test system is A549. The series can be described thus: Antiproliferative activity against human A549 cells by sulforhodamine B assay.
In series [5] the test system is KB. As to the kind of experiment: Antiproliferative activity against human KB cells by sulforhodamine B assay.
Series [6] is described as follows: Lipophilicity, log P of the compound. Conditions: octanol/water. Format: physicochemical.
Series [7] is filed under the species Homo sapiens. The series can be described thus: Inhibition of tubulin polymerization in interphase stage of human MDA-MB-231 cells at 0.2 uM after 24 hrs by DAPI staining based confocal microscopic analysis.

Molecules are shown by their SMILES. Calls of active or inactive are those of the source. The rule behind the calls is not given here.

Regarding `CCC1=C(OC)C(CC)(CC)C(O)=C(C(=O)/C=C/c2csc3ccc(NC(=O)OC(C)(C)C)cc23)C1=O`, the IC50 (as a rule, the midpoint of a concentration-inhibition curve) in series [1] was 7.01 µM; in series [2], 7.48 µM; in series [3], 5.45 µM; in series [4] it was 5.1 µM; in series [5], 5.88 µM.
On to `CCC1=C(O)c2c(oc(-c3csc4cc(N)ccc34)cc2=O)C(CC)(CC)C1=O`, for which, in series [6], the logP (commonly a log measure of how a compound divides between an organic and an aqueous phase) was 2.11.
As for `CCC1=C(OC)C(CC)(CC)c2oc(-c3csc4cc(NC(=O)OC(C)(C)C)ccc34)cc(=O)c2C1=O`, the IC50 in series [1] amounted to 6.01 µM; in series [2], 6.52 µM; in series [3], 5.02 µM; in series [4], 5.62 µM; in series [5], 5.13 µM.
`CC(=O)O[C@H]1C(=O)[C@@]2(C)[C@H]([C@H](OC(=O)c3ccccc3)[C@]3(O)C[C@H](OC(=O)[C@H](O)[C@@H](NC(=O)c4ccccc4)c4ccccc4)C(C)=C1C3(C)C)[C@]1(OC(C)=O)CO[C@@H]1C[C@@H]2O` [PACLITAXEL] showed an IC50 in series [3] of 2.04 µM.
Take `CCC1=C(O)c2c(oc(-c3csc4cc(NC(=O)OC(C)(C)C)ccc34)cc2=O)C(CC)(CC)C1=O`: the IC50 in series [1], in series [2], in series [3], in series [4] and in series [5] was greater than 40 µM each time.
`COc1ccc(/C=C\c2cc(OC)c(OC)c(OC)c2)cc1O`: the inhibition result in series [7] was “Active”.
